How the values were obtained:
[1] = system: human iPS cell line HC-6 #10; assay: Maturation culture of cell clusters in viscous medium (Experiment 16); format: cell-based; details: IGF-1 20 ng/ml, 10% fetal bovine serum and EC23 100 nM added together to the culture medium; day 45
Description: Cell clusters were maturation-cultured in a viscous medium in accordance with the method shown in the upper section of FIG. 30. The viscous medium was prepared with reference to Japanese Patent No. 6176770. Specifically, 3 g of methylcellulose (manufactured by Sigma. Aldrich, Inc., viscosity: 4000 cP, M0512) was weighed, and sterilized by autoclaving in a 500 ml wide-open medium bottle containing an agitator, and then 100 ml of medium was added thereto. As the medium, a 1:1 in volume mixture of F-12+Glutamax medium and IMDM+Glutamax medium supplemented with 5% Knockout Serum Replacement, 10% fetal bovine serum (manufactured by Biosera), 450 μM 1-monothioglycerol, lx Chemically defined lipid concentrate, 50 unit/ml penicillin-50 μg/ml streptomycin, 20 ng/ml FGF-TS, 20 ng/ml EGF, 20 ng/ml IGF-1 (manufactured by R&D Systems), 10 μg/ml Heparin Sodium, 1 μM SB431542, 1 μM K02288, 300 nM CHIR99021, and 100 nM EC23 (retinoic acid signaling pathway-activating substance) was used. The medium bottle containing methylcellulose supplemented with the medium was stirred in a cryogenic chamber overnight using a stirrer corresponding to a high viscosity liquid (manufactured by Asahi Rika Factory. Ltd, AMG-H). […]

[2] = system: human iPS cell line HC-6 #10; assay: Effect of TAK1 inhibitor in cell cluster production (Experiment 15); format: cell-based; details: 5z-7-oxozeaenol 2 μM from day 3 (step (3)); day 21
Description: Human iPS cells (HC-6 #10 cell line, obtained from the Institute of Physical and Chemical Research) were subjected to maintenance culturing and step (a) in the same manner as in Experiment 1. The suspension culturing was started on a 96-well culture plate in the same manner as in Experiment 1, except that the number of cells per well was 9×10^3 cells.
At the start of suspension culturing (day 0 after the start of suspension culturing, start of step (1)), Y27632 (final concentration 20 μM), IWP-2 (final concentration 2 μM), SB-431542 (final concentration 1 μM) and CHIR99021 (final concentration 300 nM) were added to the serum-free medium.
On day 2 after the start of suspension culturing, a serum-free medium being free of Y27632 and containing SB-431542, BMP4, IWP-2 and CHIR99021 was added at 100 μl per well (start of step (2)). BMP4 was added to the medium at 3 nM to be a final concentration in the well of 1.5 nM.
On day 3 after the start of suspension culturing, the medium was half exchanged with a serum-free medium being free of Y27632 and BMP4 and containing IWP-2, SB-431542, FGF2, Heparin Sodium, and CHIR99021. In addition, a TAK1 inhibitor 5z-7-oxozeaenol (manufactured by Cayman Chemical) was added to the medium at 4 μM to be a final concentration in the well of 2 μM (start of step (3a)). […]

Row | Molecule | maintenance of olfactory epithelial-like tissues [1] | formation of olfactory epithelium-like tissues on the surface of the cell cluster versus cell cluster produced without the TAK1 inhibitor [2]
1 | CC1(C)CCC(C)(C)c2cc(C#Cc3ccc(C(=O)O)cc3)ccc21 | could further efficiently maintain olfactory epithelial-like tissues | –
2 | COc1cc(O)c2c(c1)/C=C/C[C@H](O)[C@H](O)C(=O)/C=C\C[C@H](C)OC2=O [TAK1 inhibitor, (3S,5Z,8S,9S,11E)-3,4,9,10-tetrahydro-8,9,16-tri hydroxy-14-methoxy-3-methyl-1H-2-benzoxacyclotetradecin-1,7(8H)-dione] | – | more efficient formation of olfactory epithelium-like tissues
3 | IGF: 20 ng/ml IGF-1 (manufactured by R&D Systems) in the viscous medium | could further efficiently maintain olfactory epithelial-like tissues | –
